From patent US20210395235A1, “COMPOUND AS TGF-beta R1 INHIBITOR AND APPLICATION THEREOF” (NANJING SANHOME PHARMACEUTICAL CO., LTD., priority 2018, published 2021)

Legend:
ALK5 = target: T1, ALK5 (Homo sapiens, UniProt P36897); experiment: In vitro activity against ALK5 kinase (ADP-Glo Kinase Assay); type: biochemical; conditions: 28° C. 120 minutes
T1 construct: purchased Carna 09-141
T1 sequence (P36897 162-503 limits assumed): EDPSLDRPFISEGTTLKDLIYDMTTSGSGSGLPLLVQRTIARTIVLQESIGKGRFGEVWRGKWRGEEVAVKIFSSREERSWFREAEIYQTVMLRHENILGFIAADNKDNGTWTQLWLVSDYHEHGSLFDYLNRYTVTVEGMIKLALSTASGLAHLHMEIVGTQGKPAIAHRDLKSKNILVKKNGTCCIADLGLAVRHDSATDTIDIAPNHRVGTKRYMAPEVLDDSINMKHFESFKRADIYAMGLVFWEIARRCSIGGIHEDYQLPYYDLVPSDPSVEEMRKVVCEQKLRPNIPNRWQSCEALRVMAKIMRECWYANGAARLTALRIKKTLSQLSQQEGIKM
Description: For the compounds of the present disclosure prepared in the above examples, each compound was prepared into 10 mM with DMSO, and then diluted to 3.333 μM, 1.111 μM, 370 nM, 123 nM, 41 nM, 14 nM, 4.6 nM, 1.5 nM and 0.5 nM successively.
Reagents: ALK5, Cat. No. 09-141, purchased from Carna; p38α, Cat. No. 04-152, purchased from the Carna; TGFβR1 peptides, Cat. No. T36-58, purchased from SignalChem; dimethyl sulfoxide (DMSO), purchased from Sigma, US; EDTA, purchased from Sigma, US; and ADP-Glo Kinase Assay, Cat. No. v9102/3, 1×Kinase buffer (40 mM Tris, pH7.5, 0.10% BSA, 20 mM MgCl2, 1 mM DTT), purchased from Promega, and prepared immediately before use.
2.2.1.1 Preparation of 50-fold compounds: The compounds were prepared into 500 μM, 50-fold concentration as the final concentration 10 μM for detecting the compounds, which was performed as following: into a second well of a 96-well plate, 95 μl of 100% DMSO was added, and then 5 μl of the 10 mM compound solution was added, to prepare a […] compound solution; into other wells, 60 μl of 100% DMSO was added; from the second well, 30 μl of the compound was drawn out and added into a third well; such 3-fold serial dilution was continued successively until 10 dilutions of concentration were made.
The kinase was added to a 1× kinase buffer, to form a 2× enzyme solution. 2.5 μl of the 2× enzyme solution was added to a 384-well reaction plate which already contained 100 nl of 100% DMSO-dissolved compound, to incubate at room temperature for 10 minutes.
FAM labeled peptides and ATP were added to the 1× kinase buffer, to form a 2× substrate solution. 2.5 μl of the 2× substrate solution was added to the 384-well reaction plate.
The 384-well plate was incubated at 28° C. for 120 minutes.
2.5.1 An ADP-Glo reagent was equilibrated to room temperature.
2.5.2 5 μl of the reaction solution was transferred into a reaction well at another new 384-well plate.
2.5.3 5 μl of the ADP-Glo reagent was transferred into the reaction well at the 384-well plate to stop the reaction.
2.5.4 An incubation was performed at 28° C. for 120 minutes.
2.5.5 10 μl of a kinase detection reagent was transferred into each reaction well, shaken for 1 minute, and was allowed to stand for 30 minutes at room temperature.
The luminescence value of the sample was read from Envision.
2.7.1 Luminescence reading data were copied from the Envision program.
2.7.2 The values of the luminescence reading were converted into the percent inhibition by the following formula.
Percent inhibition=(max−sample RLU)/(max−min)×100, where “min” stands for the fluorescence reading of the control sample with no enzyme added to the reaction; and “max” stands for the fluorescence reading of the sample with DMSO added as a control.
2.7.3 The date were imported into MS Excel and subjected to curve fitting using XLFit excel add-in version 5.4.0.8 and a fitting formula: Y=Bottom+(Top−Bottom)/(1+(IC50/X)^HillSlope).

[1] = system: TGFβ-ALK5-SMAD2/3 signaling pathway in Luc-Smad2/3-NIH3T3 cells; experiment: In vitro cell luciferase assay in Luc-Smad2/3-NIH3T3 cells stimulated with TGFβ1; type: cell-based; conditions: Mus musculus; TGFβ1 4 ng/mL, 2% FBS medium, luciferase chemiluminescence
Description: Test compounds: For the compounds of the present disclosure prepared in the above examples, each compound was prepared into 4 mM using DMSO. Then, a 4-fold serial dilution was made to obtain 20000.00 nM, 5000.00 nM, 1250.00 nM, 312.5 nM, 78.125 nM, 19.53 nM, 4.88 nM and 1.22 nM successively.
Luc-Smad2/3-NIH3T3 mouse fibroblasts (engineered to overexpress SMAD2,3-responsive promoter) were provided by a laboratory of China Pharmaceutical University.
Reagents: DMEM, purchased from Invitrogen, US; FBS, purchased from Invitrogen, US; DMSO, purchased from Sigma, US; Glo Lysis Buffer, purchased from Progema, US; Bright-Glo Luciferase assay system, purchased from Promega, US; and TGFβ, purchased from PeproTech, US.
Instruments: MD SpectraMaX M3 multifunctional enzyme reader, purchased from Molecular Devices, US.
Cell recovery: The cells were dissolved by placing in a […] water bath, then transferred to a 15 mL of pre-warmed culture medium, and centrifuged at 1000 rpm for 5 minutes. After the culture medium was discarded, the cells were resuspend in 15 mL of fresh culture medium, transferred to a 10 cm dish, and placed in an incubator at 37° C. with 5% CO2 for culture. After 24 hours, the culture medium for the cells was changed with a fresh culture medium.
Cell passage: The recovered cells were transferred to a 50 mL sterile centrifuge tube and centrifuged at 1000 rpm for 5 minutes. The culture medium was discarded. The evenly dispersed cells was counted, and adjusted to an appropriate cell concentration of 15 mL of fresh culture medium, added to a 10 cm dish, and placed in an incubator at 37° C. with 5% CO2 for culture.
Luc-Smad2/3-NIH3T3 cells were cultured normally in a 10 cm culture dish until the confluence reached 80%-90%. After digestion, they were collected in a 15 mL centrifuge tube, centrifuged at 1000×g for 5 minutes to remove the supernatant, and resuspended with 1 mL of medium, then diluted 10 times and counted. The cells was diluted according to the results from the count, and transferred into a 96-well plate at 4×10^3/cells per well (100 μl of resuspended cells was added in each well).
1-2 mg of the drug was weighed (weighed in advance), and prepared into a 4 mM stock solution using DMSO. After 24 hours, the culture medium was removed. The drug was diluted with 2% FBS culture medium. 100 μl of the 1× drug solution was added to make the final concentration of the drug to be 20000.00 nM, 5000.00 nM, 1250.00 nM, 312.5 nM, 78.125 nM, 19.53 nM, 4.88 nM, and 1.22 nM. TGFβ1 was present in each well at a final concentration of 4 ng/mL, and diluted with 2% FBS culture medium together with the compounds.
The Glo Lysis Buffer and the Bright-glo luciferase assay system as well as the cells were equilibrated to room temperature. After the cell supernatant was removed, the cells were dissolved evenly by adding 100 μl of the Glo Lysis Buffer to each well with shaking slowly, and lysed at room temperature for 5 minutes. After that, to each well, 100 μl of the Bright-glo luciferase assay system was added to incubate the cells for 5 minute at room temperature with shaking for 2 minutes. Then, 180 μl of the supernatant was transferred to a white bottom 96-well plate to detect chemiluminescence signal. The detection condition was 1 s.
2.3 Data processing: Graphpad Prism 5 software was used to perform nonlinear curve fitting and data analysis to obtain IC50 by fitting.

Row | IC50 (ALK5) [nM] | Compound | IC50 [1] [nM]
1 | 120 | CC(C)(O)c1cc(Nc2ccc3c(Oc4cn(C5CC5)nc4C4CCOCC4)ccnc3c2)ccn1 [Example 1, 2-(4-((4-((1-cyclopropyl-3-(tetrahydro-2H-pyran-4-yl)-1H-pyrazol-4-yl)oxy)quinolin-7-yl)amino)pyridin-2-yl)propan-2-ol] | 200
2 | 98 | c1cc(Oc2cn(C3CC3)nc2C2CCOCC2)c2ccc(N3CCOCC3)cc2n1 [Example 2, 4-(4-((1-cyclopropyl-3-(tetrahydro-2H-pyran-4-yl)-1H-pyrazol-4-yl)oxy)quinolin-7-yl)morpholine] | 150
3 | 80 | FC(F)(F)c1nnc2n1CCN(c1ccc3c(Oc4cn(C5CC5)nc4C4CCOCC4)ccnc3c1)C2 [Example 3, 4-((1-cyclopropyl-3-(tetrahydro-2H-pyran-4-yl)-1H-pyrazol-4-yl)oxy)-7-(3-(trifluoromethyl)-5,6-dihydro-[1,2,4]triazolo[4,3-a]pyrazin-7(8H)-yl)quinoline] | 102
4 | 250 | O=S1(=O)CCN(c2ccc3c(Oc4cn(C5CC5)nc4C4CCOCC4)ccnc3c2)CC1 [Example 4, 4-(4-((1-cyclopropyl-3-(tetrahydro-2H-pyran-4-yl)-1H-pyrazol-4-yl)oxy)quinolin-7-yl)thiomorpholine-1,1-dioxide] | 140
5 | 110 | CC1(O)CCN(c2ccc3c(Oc4cn(C5CC5)nc4C4CCOCC4)ccnc3c2)CC1 [Example 5, 1-(4-((1-cyclopropyl-3-(tetrahydro-2H-pyran-4-yl)-1H-pyrazol-4-yl)oxy)quinolin-7-yl)-4-methyl piperidin-4-ol] | 133
6 |  | c1cc(Oc2cn(C3CC3)nc2C2CCOCC2)c2ccc(-c3cn[nH]c3)cc2n1 [Example 8, 4-((1-cyclopropyl-3-(tetrahydro-2H-pyran-4-yl)-1H-pyrazol-4-yl)oxy)-7-(1H-pyrazol-4-yl)quinoline] | 92
7 |  | CS(=O)(=O)n1cc(-c2ccc3c(Oc4cn(C5CC5)nc4C4CCOCC4)ccnc3c2)cn1 [Example 9, 4-((1-cyclopropyl-3-(tetrahydro-2H-pyran-4-yl)-1H-pyrazol-4-yl)oxy)-7-(1-(methylsulfonyl)-1H-pyrazol-4-yl)quinoline] | 101
8 |  | CS(=O)(=O)CCn1cc(-c2ccc3c(Oc4cn(C5CC5)nc4C4CCOCC4)ccnc3c2)cn1 [Example 10, 4-((1-cyclopropyl-3-(tetrahydro-2H-pyran-4-yl)-1H-pyrazol-4-yl)oxy)-7-(1-(2-(methylsulfonyl)ethyl)-1H-pyrazol-4-yl)quinoline] | 90
9 |  | CC(C)(O)Cn1cc(-c2ccc3c(Oc4cn(C5CC5)nc4C4CCOCC4)ccnc3c2)cn1 [Example 11, 1-(4-(4-((1-cyclopropyl-3-(tetrahydro-2H-pyran-4-yl)-1H-pyrazol-4-yl)oxy)quinolin-7-yl)-1H-pyrazol-1-yl)-2-methylpropan-2-ol] | 96
10 |  | CC(C)n1cc(-c2ccc3c(Oc4cn(C5CC5)nc4C4CCOCC4)ccnc3c2)cn1 [Example 12, 4-((1-cyclopropyl-3-(tetrahydro-2H-pyran-4-yl)-1H-pyrazol-4-yl)oxy)-7-(1-isopropyl-1H-pyrazol-4-yl)quinoline] | 77
11 |  | FC(F)(F)Cn1cc(-c2ccc3c(Oc4cn(C5CC5)nc4C4CCOCC4)ccnc3c2)cn1 [Example 13, 4-((1-cyclopropyl-3-(tetrahydro-2H-pyran-4-yl)-1H-pyrazol-4-yl)oxy)-7-(1-(2,2,2-trifluoroethyl)-1H-pyrazol-4-yl)quinoline] | 81
12 |  | Cn1cc(-c2ccc3c(Oc4cn(C5CC5)nc4-c4ccccc4)ccnc3c2)cn1 [Example 14, 4-((1-cyclopropyl-3-phenyl-1H-pyrazol-4-yl)oxy)-7-(1-methyl-1H-pyrazol-4-yl)quinoline] | 46
13 |  | NS(=O)(=O)c1ccc(-c2ccc3c(Oc4cn(C5CC5)nc4C4CCOCC4)ccnc3c2)cc1 [Example 20, 4-(4-((1-cyclopropyl-3-(tetrahydro-2H-pyran-4-yl)-1H-pyrazol-4-yl)oxy)quinolin-7-yl)benzenesulfonamide] | 75
14 |  | CS(=O)(=O)c1ccc(-c2ccc3c(Oc4cn(C5CC5)nc4C4CCOCC4)ccnc3c2)cn1 [Example 21, 4-((1-cyclopropyl-3-(tetrahydro-2H-pyran-4-yl)-1H-pyrazol-4-yl)oxy)-7-(6-(methylsulfonyl)pyridin-3-yl)quinoline] | 49
15 |  | CS(=O)(=O)N1CC=C(c2ccc3c(Oc4cn(C5CC5)nc4C4CCOCC4)ccnc3c2)CC1 [Example 22, 4-((1-cyclopropyl-3-(tetrahydro-2H-pyran-4-yl)-1H-pyrazol-4-yl)oxy)-7-(1-(methylsulfonyl)-1,2,3,6-tetrahydropyridin-4-yl)quinoline] | 56
16 |  | FC(F)(F)c1nc2n(n1)CCN(c1ccc3c(Oc4cn(C5CC5)nc4C4CCOCC4)ccnc3c1)C2 [Example 23, 4-((1-cyclopropyl-3-(tetrahydro-2H-pyran-4-yl)-1H-pyrazol-4-yl)oxy)-7-(2-(trifluoromethyl)-5,6-dihydro-[1,2,4]triazolo[1,5-a]pyrazin-7(8H)-yl)quinoline] | 200
